Tested on: ID8-vegfA-defb29 murine ovarian serous carcinoma cell line
Test: CPMV and CPMV-AUNP therapy in a tumor mouse model (serous ovarian cancer, IP)
Format: in vivo, C57BL/6J mice
Protocol: FIGS. 3A-3B: (FIG. 3A) Female C57BL/6 mice were inoculated (i.p.) with 2×10^6 ID8-Defb29/Vegf-A cells followed by six weekly injections (i.p.) of PBS control (n=5), 1 μg AUNP (n=3), 100 μg CPMV (n=5), 100 μg CPMV-AUNP (n=7), 100 μg CPMV+1 μg AUNP physical mixture (n=7). Body weight was measured to monitor tumor growth. Data are means±SEM. Data are plotted for a minimum of n=3 per group. (FIG. 3B) Survival curves of the treatment groups.
CPMV and CPMV-AUNP therapy in a tumor mouse model: All animal studies were conducted upon approval and in accordance with the University of California, San Diego Institutional Animal Care and Use Committee (IACUC) guidelines. […] Tumor burden was measured by increase in body weight and data were analyzed and plotted using Graphpad Prism software.
To assay efficacy of the CPMV-AUNP nanoparticle, Applicant used a mouse model of serous ovarian cancer. […] Applicant used luciferase-labeled ID8defb29/vegf cells, allowing us to quantify the disease burden and establishment of disease (data not shown). Imaging is only informative at early time points, before the development of ascites, therefore Applicant used imaging to confirm successful tumor cell injection and tumor formation but then monitored body weight to assess tumor burden and 35 grams body weight was defined as the endpoint for the study. […]

SNTSESFGSGGGSGGC [AUNP, anti-PD-1 peptide SNTSESF (side branch of AUNP-12) with GSGGGSGG linker and carboxy-terminal cysteine, from Genscript]
tumor burden as measured by increase in body weight (1 μg weekly IP, up to day 47 (group removed for non-treatment related reasons)): matched closely the PBS control group | efficacy against disseminated ovarian tumors (survival, tumor burden), in words (weekly IP: 100 μg CPMV or CPMV-AUNP, 1 μg AUNP, or 100 μg CPMV+1 μg AUNP): no apparent effect

— patent publication US20250127842A1, “IMMUNE […] THERAPEUTIC NANOPARTICLES” (priority 2021, published 2025)
